# According to ChEMBL document CHEMBL1153078, “Design and synthesis of acetamido tri- and tetra-hydroxyazepanes: potent and selective beta-N-acetylhexosaminidase inhibitors” (Bioorg Med Chem, 2009):
# The source made the active and inactive calls. The rule behind the calls is not given here.
# Key:
# [1] = target: Alpha-galactosidase (Coffea arabica) (UniProt Q42656); assay: Inhibition of coffee bean alpha-galactosidase at 1 mM
# Prunus dulcis = assay: Inhibition of almond beta-glucosidase at 1 mM
# [2] = target: T1, Beta-galactosidase (Aspergillus oryzae) (UniProt Q2U7N3); assay: Inhibition of Aspergillus oryzea beta-galactosidase at 1 mM
# T1 sequence (whole entry): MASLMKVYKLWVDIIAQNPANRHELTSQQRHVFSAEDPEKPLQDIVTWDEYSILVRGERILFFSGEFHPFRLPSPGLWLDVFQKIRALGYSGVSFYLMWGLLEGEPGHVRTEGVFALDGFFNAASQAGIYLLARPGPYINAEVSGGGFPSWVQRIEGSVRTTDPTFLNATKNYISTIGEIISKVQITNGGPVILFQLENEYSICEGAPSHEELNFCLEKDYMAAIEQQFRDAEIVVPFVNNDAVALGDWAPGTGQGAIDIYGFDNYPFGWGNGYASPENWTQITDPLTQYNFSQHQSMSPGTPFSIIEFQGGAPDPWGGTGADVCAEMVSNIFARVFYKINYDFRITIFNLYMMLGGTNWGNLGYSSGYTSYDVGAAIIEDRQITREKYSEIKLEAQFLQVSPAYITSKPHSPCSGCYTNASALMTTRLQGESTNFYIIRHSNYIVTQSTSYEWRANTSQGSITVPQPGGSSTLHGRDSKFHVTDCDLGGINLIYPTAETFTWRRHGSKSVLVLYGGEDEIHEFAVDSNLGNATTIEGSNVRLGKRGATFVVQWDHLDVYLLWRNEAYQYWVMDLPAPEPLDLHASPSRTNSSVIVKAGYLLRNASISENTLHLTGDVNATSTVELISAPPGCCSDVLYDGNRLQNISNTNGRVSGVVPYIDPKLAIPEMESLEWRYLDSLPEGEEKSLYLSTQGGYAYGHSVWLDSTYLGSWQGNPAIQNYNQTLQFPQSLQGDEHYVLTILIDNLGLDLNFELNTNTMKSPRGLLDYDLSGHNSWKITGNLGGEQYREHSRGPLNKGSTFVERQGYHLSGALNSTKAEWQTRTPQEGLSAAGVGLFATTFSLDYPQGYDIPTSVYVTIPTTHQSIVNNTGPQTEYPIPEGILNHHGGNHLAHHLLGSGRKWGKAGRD
# Saccharomyces cerevisiae = assay: Inhibition of yeast alpha-glucosidase at 1 mM
# Canavalia ensiformis [3] = assay: Inhibition of jack bean alpha-mannosidase at 1 mM
# Helix pomatia = assay: Inhibition of snail beta-mannosidase at 1 mM
# Aspergillus niger = assay: Inhibition of Aspergillus niger amyloglucosidase at 1 mM
# Bos taurus [4] = species: Bos taurus; assay: Inhibition of bovine liver beta-N-acetylglucosaminidase at 1 mM
# Aspergillus oryzae = assay: Inhibition of Aspergillus oryzea beta-xylosidase at 1 mM
# Oryza sativa = assay: Inhibition of rice alpha-glucosidase at 1 mM
# [5] = target: T2, Tissue alpha-L-fucosidase (Bos taurus) (UniProt Q2KIM0); assay: Inhibition of bovine epididymis alpha-L-fucosidase at 1 mM
# T2 sequence (whole entry): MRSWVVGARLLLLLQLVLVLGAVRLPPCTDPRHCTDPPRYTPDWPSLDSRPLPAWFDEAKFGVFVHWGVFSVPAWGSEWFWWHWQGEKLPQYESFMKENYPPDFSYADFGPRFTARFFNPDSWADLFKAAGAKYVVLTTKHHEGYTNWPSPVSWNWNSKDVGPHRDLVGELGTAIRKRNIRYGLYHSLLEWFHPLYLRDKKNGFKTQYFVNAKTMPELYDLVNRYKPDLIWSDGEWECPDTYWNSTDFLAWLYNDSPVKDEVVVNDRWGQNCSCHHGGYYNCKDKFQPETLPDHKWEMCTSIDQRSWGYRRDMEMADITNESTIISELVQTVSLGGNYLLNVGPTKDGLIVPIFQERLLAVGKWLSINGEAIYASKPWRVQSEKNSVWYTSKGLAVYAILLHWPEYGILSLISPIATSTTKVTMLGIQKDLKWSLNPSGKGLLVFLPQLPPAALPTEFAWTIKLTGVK
# Canavalia ensiformis [6] = assay: Inhibition of jack bean beta-N-acetylglucosaminidase at 1 mM
# [7] = Inhibition of jack bean beta-N-acetylglucosaminidase; parameters: species or system Canavalia ensiformis
# [8] = target: Beta-galactosidase (Escherichia coli) (UniProt Q8VNN2); assay: Inhibition of Escherichia coli beta-galactosidase at 1 mM
# [9] = Inhibition of bovine liver beta-N-acetylglucosaminidase; parameters: species or system Bos taurus
# Bos taurus [10] = species: Bos taurus; assay: Inhibition of bovine liver beta-N-acetylglucosaminidase at 240 uM
# Canavalia ensiformis [11] = assay: Inhibition of jack bean beta-N-acetylglucosaminidase at 240 uM
# Chain of Alpha-galactosidase (Coffea arabica) (Q42656 16-378 limits assumed): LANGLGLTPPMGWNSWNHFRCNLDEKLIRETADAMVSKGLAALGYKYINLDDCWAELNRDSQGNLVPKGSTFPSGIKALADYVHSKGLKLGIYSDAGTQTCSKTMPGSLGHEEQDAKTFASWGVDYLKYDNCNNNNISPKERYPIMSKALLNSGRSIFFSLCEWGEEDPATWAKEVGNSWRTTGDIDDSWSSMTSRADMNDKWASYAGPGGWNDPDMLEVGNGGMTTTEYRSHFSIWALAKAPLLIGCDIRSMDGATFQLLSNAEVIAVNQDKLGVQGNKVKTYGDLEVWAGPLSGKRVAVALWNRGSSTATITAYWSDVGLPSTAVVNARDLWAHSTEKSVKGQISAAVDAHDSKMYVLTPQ
# Chain of Beta-galactosidase (Escherichia coli) (Q8VNN2 whole entry, looked up): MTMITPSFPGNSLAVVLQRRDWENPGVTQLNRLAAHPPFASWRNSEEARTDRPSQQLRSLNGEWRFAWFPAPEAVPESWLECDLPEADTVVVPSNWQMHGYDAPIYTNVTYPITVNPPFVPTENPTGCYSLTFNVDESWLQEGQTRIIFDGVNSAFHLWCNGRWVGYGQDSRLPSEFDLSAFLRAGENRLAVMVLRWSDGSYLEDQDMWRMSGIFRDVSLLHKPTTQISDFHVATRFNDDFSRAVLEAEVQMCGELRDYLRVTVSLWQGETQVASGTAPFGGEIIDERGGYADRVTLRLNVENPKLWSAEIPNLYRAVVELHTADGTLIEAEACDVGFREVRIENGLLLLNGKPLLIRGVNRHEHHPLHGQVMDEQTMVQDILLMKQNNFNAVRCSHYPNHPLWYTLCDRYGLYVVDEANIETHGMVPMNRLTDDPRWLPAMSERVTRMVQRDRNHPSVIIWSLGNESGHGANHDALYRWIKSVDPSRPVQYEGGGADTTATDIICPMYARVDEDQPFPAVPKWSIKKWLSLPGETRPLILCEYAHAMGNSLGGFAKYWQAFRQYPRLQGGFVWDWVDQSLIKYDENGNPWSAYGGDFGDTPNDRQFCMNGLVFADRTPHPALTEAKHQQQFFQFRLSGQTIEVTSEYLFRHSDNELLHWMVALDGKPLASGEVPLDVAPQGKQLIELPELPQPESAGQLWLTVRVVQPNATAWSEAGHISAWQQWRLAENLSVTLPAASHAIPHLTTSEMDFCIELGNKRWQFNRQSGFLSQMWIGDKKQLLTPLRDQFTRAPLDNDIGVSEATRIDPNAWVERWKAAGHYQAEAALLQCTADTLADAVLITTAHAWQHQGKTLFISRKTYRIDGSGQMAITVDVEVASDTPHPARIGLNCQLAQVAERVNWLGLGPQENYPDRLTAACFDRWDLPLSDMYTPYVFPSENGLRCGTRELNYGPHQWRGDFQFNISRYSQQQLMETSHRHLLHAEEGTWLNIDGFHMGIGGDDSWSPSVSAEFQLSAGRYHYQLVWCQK
inhibition [1],inhibition (Prunus dulcis),inhibition [2],inhibition (Saccharomyces cerevisiae),inhibition (Canavalia ensiformis [3]),inhibition (Helix pomatia),inhibition (Aspergillus niger),inhibition (Bos taurus [4]) [%],inhibition (Aspergillus oryzae),inhibition (Oryza sativa),inhibition [5],inhibition (Canavalia ensiformis [6]) [%],Ki [7] [nM],inhibition [8],Ki [9] [nM],inhibition (Bos taurus [10]) [%],inhibition (Canavalia ensiformis [11]) [%],SMILES
inactive,inactive,inactive,inactive,inactive,inactive,inactive,74,inactive,inactive,inactive,88,30000,inactive,,,,CC(=O)N[C@H]1CN[C@H](CO)[C@@H](O)[C@H](O)[C@@H]1O
inactive,inactive,inactive,inactive,25%,inactive,inactive,99,inactive,inactive,inactive,98,500,inactive,600,,,CC(=O)N[C@@H]1[C@@H](O)[C@H](O)[C@@H](CO)NC[C@H]1O
inactive,inactive,inactive,inactive,inactive,inactive,19%,99,inactive,inactive,28%,99,400,inactive,700,22,22,CC(=O)N[C@H]1CNC[C@H](O)[C@@H](O)[C@@H]1O
inactive,inactive,inactive,inactive,inactive,inactive,inactive,68,inactive,inactive,inactive,93,,inactive,,,,CC(=O)N[C@@H]1CNC[C@H](O)[C@@H](O)[C@@H]1O
